From ChEMBL document CHEMBL3244031, “Synthesis of octanoyl[8-leucyl]angiotensin II, a lipophilic angiotensin antagonist” (J Med Chem, 1977)
Where a SMILES comes first, the peptide text is derived from it. The star is where a group is joined. Octanoyl = CCCCCCCC(=O)*

How the values were obtained:
[1] = molecular target: T1, Angiotensin II receptor (Rattus norvegicus) (UniProt P29089+P25095+P35351); experiment: Antagonist activity at angiotensin 2 receptor in rat uterus assessed as time required for recovery of organ's response at 2 X 10^-7 M administered 3 mins prior to angiotensin-2 challenge followed by compound washout at 2 mins post challenge; assay type: tissue-based
Angiotensin II receptor = molecular target: T2, Angiotensin II receptor (Rattus norvegicus, UniProt P29089+P25095+P35351); experiment: Antagonist activity at angiotensin 2 receptor in rat uterus assessed as inhibition of angiotensin-2-induced effect after 15 mins; assay type: tissue-based
T2 sequence (P29089 whole entry): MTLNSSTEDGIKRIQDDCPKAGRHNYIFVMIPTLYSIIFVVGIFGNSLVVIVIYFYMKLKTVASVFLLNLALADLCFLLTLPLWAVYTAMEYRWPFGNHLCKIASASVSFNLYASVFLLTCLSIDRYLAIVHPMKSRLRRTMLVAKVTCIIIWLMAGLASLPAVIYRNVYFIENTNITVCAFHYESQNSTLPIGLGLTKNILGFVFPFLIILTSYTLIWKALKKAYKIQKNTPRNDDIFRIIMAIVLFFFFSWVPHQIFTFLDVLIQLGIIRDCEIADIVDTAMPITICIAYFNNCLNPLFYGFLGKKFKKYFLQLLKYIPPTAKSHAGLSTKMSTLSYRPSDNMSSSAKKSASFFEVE
T2 sequence (P25095 whole entry): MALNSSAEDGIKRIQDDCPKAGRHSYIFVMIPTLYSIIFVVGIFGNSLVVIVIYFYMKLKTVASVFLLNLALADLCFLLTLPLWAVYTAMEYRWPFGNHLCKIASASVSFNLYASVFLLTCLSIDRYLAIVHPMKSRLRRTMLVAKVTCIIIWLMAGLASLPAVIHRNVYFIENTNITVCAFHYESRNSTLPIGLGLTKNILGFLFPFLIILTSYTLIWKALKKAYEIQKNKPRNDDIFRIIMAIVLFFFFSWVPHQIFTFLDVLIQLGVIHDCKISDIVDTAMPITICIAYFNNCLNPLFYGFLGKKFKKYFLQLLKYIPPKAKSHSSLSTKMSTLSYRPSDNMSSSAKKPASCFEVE
T2 sequence (P35351 whole entry): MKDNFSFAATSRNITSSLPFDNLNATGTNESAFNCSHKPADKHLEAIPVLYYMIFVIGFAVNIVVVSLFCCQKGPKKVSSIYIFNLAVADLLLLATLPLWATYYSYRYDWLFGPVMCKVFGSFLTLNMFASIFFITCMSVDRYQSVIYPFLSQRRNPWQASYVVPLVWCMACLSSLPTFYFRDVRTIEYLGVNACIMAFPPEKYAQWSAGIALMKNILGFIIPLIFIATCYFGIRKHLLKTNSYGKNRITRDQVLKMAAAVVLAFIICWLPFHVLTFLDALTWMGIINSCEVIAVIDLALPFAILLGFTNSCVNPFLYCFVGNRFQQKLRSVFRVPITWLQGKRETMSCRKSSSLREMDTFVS

[2] = molecular target: T1, Angiotensin II receptor (Rattus norvegicus); experiment: Antagonist activity at angiotensin 2 receptor in rat uterus assessed as concentration required to reduce maximum response induced by agonist by one-half after 15 mins; assay type: tissue-based
Cavia porcellus [3] = species on record: Cavia porcellus; experiment: Agonist activity at angiotensin 2 receptor in guinea pig ileum relative to angiotensin-2; assay type: tissue-based
[4] = molecular target: T1, Angiotensin II receptor (Rattus norvegicus); experiment: Agonist activity at angiotensin 2 receptor in rat uterus relative to angiotensin-2; assay type: tissue-based
Rattus norvegicus [5] = experiment: Antihypertensive activity in iv dosed rat assessed as time required for recovery of angiotensin-2-induced increase in blood pressure; assay type: functional, organism-based
Cavia porcellus [6] = species on record: Cavia porcellus; experiment: Antagonist activity at angiotensin 2 receptor in guinea pig ileum assessed as concentration required to reduction of angiotensin-2-induced maximum response by one-half after 15 mins; assay type: tissue-based
[7] = Antagonist activity at angiotensin 2 receptor in guinea pig ileum assessed as inhibition of angiotensin-2-induced effect after 15 mins; assay type: tissue-based; conditions: Cavia porcellus, 0.25 h, read-out: pA2 (converted)
[8] = Partition coefficient, log K of the compound in n-BuOH-HOAc-H2O; assay type: physicochemical
Cavia porcellus [9] = experiment: Antagonist activity at angiotensin 2 receptor in guinea pig ileum assessed as time required for recovery of organ's response at 2 X 10^-7 M administered 3 mins prior to angiotensin-2 challenge followed by compound washout at 2 mins post challenge; assay type: tissue-based
Rattus norvegicus [10] = experiment: Antihypertensive activity in iv dosed rat assessed as dose required to inhibit angiotensin-2-induced increase in blood pressure; assay type: functional
Rattus norvegicus [11] = experiment: Increase in blood pressure in iv dosed rat relative to angiotensin-2; assay type: functional
[12] = molecular target: T1, Angiotensin II receptor (Rattus norvegicus); experiment: Antagonist activity at angiotensin 2 receptor in rat uterus assessed as time required for recovery of organ's response at 2 X 10^-8 M administered 3 mins prior to angiotensin-2 challenge followed by compound washout at 5 mins post challenge; assay type: tissue-based
Cavia porcellus [13] = experiment: Antagonist activity at angiotensin 2 receptor in guinea pig ileum assessed as time required for recovery of organ's response at 2 X 10^-8 M administered 3 mins prior to angiotensin-2 challenge followed by compound washout at 2 mins post challenge; assay type: tissue-based

Compound	T1/2 [1]	pA2 (Angiotensin II receptor)	pAh [2]	Activity (Cavia porcellus [3])	Activity [4]	T1/2 (Rattus norvegicus [5])	pAh (Cavia porcellus [6])	Kb [7]	K [8]	T1/2 (Cavia porcellus [9])	Activity (Rattus norvegicus [10])	Activity (Rattus norvegicus [11])	T1/2 [12]	T1/2 (Cavia porcellus [13])
CCCCCCCC(=O)N[C@@H](CC(=O)O)C(=O)N[C@@H](CCCNC(=N)N)C(=O)N[C@H](C(=O)N[C@@H](Cc1ccc(O)cc1)C(=O)N[C@H](C(=O)N[C@@H](Cc1cnc[nH]1)C(=O)N1CCC[C@H]1C(=O)N[C@@H](CC(C)C)C(=O)O)[C@@H](C)CC)C(C)C (Octanoyl-DRVYIHPL-OH)	6.6 min	8.42	6	0.15%	0.21%	12 min	6.2	22.9 nM	7	1.7 min	2.3 ug/min.kg	0.1%		
H-DRVYIHPL-OH		8.33	6.2	0.016%	0.025%	12 min	7.3	1.2 nM	0.18		10.2 ug/min.kg	0.09%	28.1 min	3.8 min
